One block for each compound: values may come before it.
How the values were obtained:
[1] = Form A compared with the amorphous form; Form B as stated; cited from earlier work
[2] = Heating of Fluvastatin Sodium Form CVI in oven, analysed by XRD and KF; format: physicochemical
Protocol: (§1) In the following examples, the forms of Fluvastatin Sodium were identified using a Scintag X-ray powder diffractometer model X'TRA with a solid state detector. Copper radiation of 1.5418 Å was used. The sample holder was a round standard aluminum sample holder with rough zero background. The scanning parameters were range: 2-40 degrees two-theta; scan mode: continuous scan; step size: 0.05 deg.; and a rate of 5 deg/min. The water content of the samples was determined by the method known as Karl Fisher (KF).

[3] = Storing at room temperature under 0-60% RH for 10 days, analysed by XRD and KF; format: physicochemical; conditions: for form found by XRD at the end of the storage time / water content after storage: room temperature
Protocol: Copper radiation of 1.5418 Å was used. The sample holder was a round standard aluminum sample holder with rough zero background. The scanning parameters were range: 2-40 degrees two-theta; scan mode: continuous scan; step size: 0.05 deg.; and a rate of 5 deg/min. The water content of the samples was determined by the method known as Karl Fisher (KF). […] Before and after the storage time the sample was analyzed by XRD. […] Before and after the storage time the sample was analyzed by XRD and KF.

[4] = Storing at room temperature under 100% RH for 10 days, analysed by XRD; format: physicochemical
Protocol: as §1, with “(KF). […] The samples stored under 100% RH had about 25% water content.” for “(KF).”

[5] = 0% RH, listed as fluvastatin Sodium Form CVI

SMILES: CC(C)n1c(/C=C/C(O)C[C@@H](O)CC(=O)O)c(-c2ccc(F)cc2)c2ccccc21 (stereo partly drawn) [Form A, fluvastatin sodium]
hygroscopicity [1]: less hygroscopic

water content (KF) after heating ([2]; 80 C, 1 hour): about 2%
water content (KF) after heating ([2]; 80 C, 1 hour, listed as Fluvastatin Na Form CVI): 2%
conversion into fluvastatin sodium Form LXVI ([2]; heating to about 80° C. for about 1 hour): ≤ 10%
form found by XRD after heating ([2]; oven, 80 C, 1 hour): Fluvastatin Sodium Form CVI
form found by XRD at the end of the storage time [3, 5]: Fluvastatin Sodium Form CVI
water content after storage [3, 5]: 3%
form found by XRD at the end of the storage time ([3]; 60% RH, listed as fluvastatin Sodium Form CVI): Fluvastatin Sodium Form CVI
conversion into fluvastatin sodium Form LXVI ([3]; relative humidity about 0% to about 60%): ≤ 10%
SMILES: CC(C)n1c(/C=C/C(O)C[C@@H](O)CC(=O)O)c(-c2ccc(F)cc2)c2ccccc21 (stereo partly drawn) [Form CVI, fluvastatin sodium]

form found by XRD at the end of the storage time ([3]; 0% RH): amorphous Fluvastatin Sodium
water content after storage ([3]; 0% RH): 4%
form found by XRD at the end of the storage time ([3]; 60% RH): amorphous Fluvastatin Sodium
water content after storage [4]: about 25%
form found by XRD after storage ([4]; room temperature): Fluvastatin Na Form LXVI
SMILES: CC(C)n1c(/C=C/C(O)C[C@@H](O)CC(=O)O)c(-c2ccc(F)cc2)c2ccccc21 (stereo partly drawn) [amorphous fluvastatin sodium, fluvastatin sodium]

SMILES: CC(C)n1c(/C=C/C(O)C[C@@H](O)CC(=O)O)c(-c2ccc(F)cc2)c2ccccc21 (stereo partly drawn) [form B, fluvastatin sodium]
hygroscopicity [1]: low hygroscopicity
